Source: patent US8309739B2, “Chemical compounds” (Syngenta Limited, priority 2005, dated 2012)
Like-named read-outs stand apart in the source and are kept apart here.

What was measured:
[1] = tested on: Myzus persicae (Green Peach Aphid); test: Myzus persicae test, roots of infested pea seedlings placed in test solution; assay type: in vivo; settings: 144 h, read-out: control of Myzus persicae
From the text: Myzus persicae (Green Peach Aphid):
Roots of pea seedlings, infested with an aphid population of mixed ages, were placed directly in the test solutions of 24 ppm. 6 days after introduction, samples were checked for mortality.

[2] = tested on: Heliothis virescens (Tobacco Budworm); test: Heliothis virescens egg/larva test on artificial diet in 24-well microtiter plate; assay type: in vivo; settings: 96 h, 200 ppm by pipetting on eggs (0-24 h old) on artificial diet, 4 days, egg mortality, larval mortality, growth regulation
From the text: Heliothis virescens (Tobacco Budworm):

[3] = roots of infested pea seedlings in test solutions of 24 ppm, 6 days, mortality

SMILES | melting point | pest or weed control at 200 ppm [2] | other results
Fc1ccc2c(c1)CCC2NC1=NCCS1 (stereo not shown) | 136 °C |  | 
Cc1ccc2c(c1)C(NC1=NCCS1)CC2 (stereo not shown) | 181 °C |  | 
Oc1cccc2c1CCC2NC1=NCCS1 (stereo not shown) | 191 °C |  | 
Fc1ccc2c(c1F)CCC2NC1=NCCS1 (stereo not shown) | 161 °C |  | 
CC1(C)CC(NC2=NCCS2)c2ccccc21 (stereo not shown) | 60 to 66 °C |  | 
COc1cc2c(cc1C)CCC2NC1=NCCS1 (stereo not shown) | 152 to 153 °C |  | 
Fc1c(F)c(F)c2c(c1F)CCC2NC1=NCCS1 (stereo not shown) | 165 °C |  | 
CCc1cc(F)c2c(c1)C(NC1=NCCS1)CC2 (stereo not shown) | 148 to 149 °C |  | 
COC(=O)c1cccc2c1CCC2NC1=NCCS1 (stereo not shown) | 131 °C |  | 
Ic1cccc2c1CCC2NC1=NCCS1 (stereo not shown) | 170 to 171 °C |  | 
O=Cc1cccc2c1CCC2NC1=NCCS1 (stereo not shown) | 142 to 143 °C |  | 
Cc1cccc2c1CCC2NC1=NCCS1 (stereo not shown) [Compound 2.006, (4,5-Dihydro-thiazol-2-yl)-(4-methyl-indan-1-yl)-amine] |  |  | pest or weed control at 24 ppm [1]: ≥ 80%
Fc1cccc2c1CCC2NC1=NCCS1 (stereo not shown) [Compound 2.019] |  | ≥ 80% | pest or weed control at 24 ppm [1, 3]: ≥ 80%
Clc1cccc2c1CCC2NC1=NCCS1 (stereo not shown) [Compound 2.020] |  | ≥ 80% | 
Fc1cc(F)c2c(c1)C(NC1=NCCS1)CC2 (stereo not shown) [Compound 2.024] |  | ≥ 80% | pest or weed control at 24 ppm [1, 3]: ≥ 80%
Fc1ccc(F)c2c1CCC2NC1=NCCS1 (stereo not shown) [Compound 2.025] |  | ≥ 80% | pest or weed control at 24 ppm [1, 3]: ≥ 80%
Fc1cc(Br)cc2c1CCC2NC1=NCCS1 (stereo not shown) [Compound 2.026] |  | ≥ 80% | 
Fc1cc2c(c(F)c1F)CCC2NC1=NCCS1 (stereo not shown) [Compound 2.028] |  | ≥ 80% | 
Fc1cc(F)c2c(c1F)C(NC1=NCCS1)CC2 (stereo not shown) [Compound 2.030] |  | ≥ 80% | pest or weed control at 24 ppm [1, 3]: ≥ 80%
Cc1cc(F)c2c(c1)C(NC1=NCCS1)CC2 (stereo not shown) [Compound 2.031] |  | ≥ 80% | pest or weed control at 24 ppm [1, 3]: ≥ 80%

SMILES | melting point | pest or weed control at 200 ppm [2] | other results
CCCC1(CCC)Cc2ccccc2C1NC1=NCCS1 (stereo not shown) [Compound 2.034] | 101 to 103 °C |  | 
c1ccc(Oc2cccc3c2CCC3NC2=NCCS2)cc1 (stereo not shown) [Compound 2.041] | 143 to 146 °C |  | 
O=[N+]([O-])c1cccc2c1CCC2NC1=NCCS1 (stereo not shown) [Compound 2.042] | 144 to 145 °C |  | 
Brc1ccc2c(c1)C(NC1=NCCS1)CC2 (stereo not shown) [Compound 2.049] |  | ≥ 80% | 
Fc1cccc2c1C(NC1=NCCS1)CC2 (stereo not shown) [Compound 2.052] |  | ≥ 80% | 
FC(F)c1cccc2c1CCC2NC1=NCCS1 (stereo not shown) [Compound 2.058] |  | ≥ 80% | pest or weed control at 24 ppm [1, 3]: ≥ 80%
Fc1cccc2c1CC(F)C2NC1=NCCS1 (stereo not shown) [Compound 2.067] |  | ≥ 80% | pest or weed control at 24 ppm [1, 3]: ≥ 80%
ON(C1=NCCS1)C1CCc2c(Cl)cccc21 (stereo not shown) [Compound 7.001] | 115 to 117 °C |  | 
CC(C)(C)OC(=O)NN(C1=NCCS1)C1CCc2ccccc21 (stereo not shown) [Compound 7.002] | 63 to 64 °C |  | 
CC(=O)N(C(C)=O)N(C1=NCCS1)C1CCc2ccccc21 (stereo not shown) [Compound 7.004] | 91 to 92 °C |  | 
ON(C1=NCCS1)C1CCc2c(F)cccc21 (stereo not shown) [Compound 7.006] |  |  | pest or weed control at 24 ppm [1, 3]: ≥ 80%
Cc1cccc2c1CCC2N(O)C1=NCCS1 (stereo not shown) [Compound 7.010] |  | ≥ 80% | 
NN(C1=NCCS1)C1CCc2ccccc21 (stereo not shown) [Compound 7.013] | 103 to 105 °C |  | 
N#CN1CCSC1=NC1CCc2ccccc21 (stereo not shown) [Compound 8.017, 2-(Indan-1-ylimino)-thiazolidine-3-carbonitrile] |  | ≥ 80% | 
CC(C)C(=O)N1CCS/C1=N\C1CCc2ccccc21 (stereo not shown) [Compound 10.006] |  |  | pest or weed control at 24 ppm [1, 3]: ≥ 80%
CCC(=O)N1CCS/C1=N\C1CCc2ccccc21 (stereo not shown) [Compound 10.011] |  | ≥ 80% | pest or weed control at 24 ppm [1, 3]: ≥ 80%
COC(=O)N1CCS/C1=N\C1CCc2ccccc21 (stereo not shown) [Compound 10.015] |  | ≥ 80% | pest or weed control at 24 ppm [1, 3]: ≥ 80%
CCOC(=O)N1CCS/C1=N\C1CCc2ccccc21 (stereo not shown) [Compound 10.020] |  | ≥ 80% | 
CC(=O)N1CCS/C1=N\C1CCc2ccccc21 (stereo not shown) [Compound 10.025] |  | ≥ 80% | 
CC(=O)OC1Cc2ccccc2C1NC1=NCCS1 (stereo not shown) [Compound 12.008] |  | ≥ 80% | 
